Source: ChEMBL document CHEMBL3885881, “DrugMatrix”

Species: Rattus norvegicus
Test: DrugMatrix - Regimen: Daily Repeat
Format: toxicity, organism-based, Sprague-Dawley
Parameters: regimen Daily Repeat, gender Male, age 6-8 weeks
Settings: in vivo, po, route oral GAVAGE, vehicle 100 % WATER; for ABSOLUTE BASOPHIL / ABSOLUTE EOSINOPHIL / ABSOLUTE LYMPHOCYTE / ABSOLUTE MONOCYTE / ABSOLUTE SEGMENTED NEUTROPHIL / BASOPHIL / EOSINOPHIL / ERYTHROCYTE COUNT / HEMATOCRIT / HEMOGLOBIN / LEUKOCYTE COUNT / LYMPHOCYTE / MEAN CORPUSCULAR HEMOGLOBIN / MEAN CORPUSCULAR HEMOGLOBIN CONCENTRATION / MEAN CORPUSCULAR VOLUME / MONOCYTE / NEUTROPHIL / NUCLEATED RED BLOOD CELLS / PLATELET COUNT: tissue Blood; for ALANINE AMINOTRANSFERASE / ALBUMIN / ALKALINE PHOSPHATASE / ASPARTATE AMINOTRANSFERASE / BLOOD UREA NITROGEN / CARBON DIOXIDE / CHLORIDE / CHOLESTEROL / CREATINE PHOSPHOKINASE / CREATININE / GLUCOSE / LACTATE DEHYDROGENASE / LIPASE / PHOSPHORUS / POTASSIUM / SODIUM / TOTAL BILIRUBIN / TOTAL PROTEIN / URIC ACID: tissue Plasma
[1] = 39 mg/kg, 120 h, dose level Low, time 5 day
[2] = 150 mg/kg, 72 h, dose level High, time 3 day
[3] = 150 mg/kg, 120 h, dose level High, time 5 day

## C[C@]12Cc3c[nH]nc3C[C@@H]1CC[C@@H]1[C@@H]2CC[C@@]2(C)[C@H]1CC[C@]2(C)O [STANOZOLOL]
[1]
  ABSOLUTE BASOPHIL: 0 CELLS/uL
  ABSOLUTE EOSINOPHIL: 55.33 CELLS/uL
  ABSOLUTE LYMPHOCYTE: 11411 CELLS/uL
  ABSOLUTE MONOCYTE: 142 CELLS/uL
  ABSOLUTE SEGMENTED NEUTROPHIL: 1025 CELLS/uL
  BASOPHIL: 0%
  EOSINOPHIL: 0.33%
  ERYTHROCYTE COUNT: 5.64 x10E6/uL
  HEMATOCRIT: 35.63%
  HEMOGLOBIN: 13.63 G/DL
  LEUKOCYTE COUNT: 12.63 x10E3/uL
  LYMPHOCYTE: 90.33%
  MEAN CORPUSCULAR HEMOGLOBIN: 24.33 pg
  MEAN CORPUSCULAR HEMOGLOBIN CONCENTRATION: 38.33 G/DL
  MEAN CORPUSCULAR VOLUME: 63.43 fL
  MONOCYTE: 1.33%
  NEUTROPHIL: 8%
  NUCLEATED RED BLOOD CELLS: 0.67 /100WBC
  PLATELET COUNT: 1199.33 x10E3/uL
  ALANINE AMINOTRANSFERASE: 55.67 u/L
  ALBUMIN: 3.87 G/DL
  ALKALINE PHOSPHATASE: 492.33 u/L
  ASPARTATE AMINOTRANSFERASE: 81.67 u/L
  BLOOD UREA NITROGEN: 13.33 mg/dL
  CARBON DIOXIDE: 32.67 mmol/L
  CHLORIDE: 98.67 MEQ/L
  CHOLESTEROL: 35 mg/dL
  CREATINE PHOSPHOKINASE: 259.67 u/L
  CREATININE: 0.16 mg/dL
  GLUCOSE: 144 mg/dL
  LACTATE DEHYDROGENASE: 113 u/L
  LIPASE: 8 u/L
  PHOSPHORUS: 10.33 mg/dL
  POTASSIUM: 5.69 MEQ/L
  SODIUM: 144.47 MEQ/L
  TOTAL BILIRUBIN: 0.2 mg/dL
  TOTAL PROTEIN: 6.07 G/DL
  URIC ACID: 0.33 mg/dL
[2]
  ABSOLUTE BASOPHIL: 0 CELLS/uL
  ABSOLUTE EOSINOPHIL: 39.67 CELLS/uL
  ABSOLUTE LYMPHOCYTE: 9030.67 CELLS/uL
  ABSOLUTE MONOCYTE: 107.33 CELLS/uL
  ABSOLUTE SEGMENTED NEUTROPHIL: 755.67 CELLS/uL
  BASOPHIL: 0%
  EOSINOPHIL: 0.33%
  ERYTHROCYTE COUNT: 6.43 x10E6/uL
  HEMATOCRIT: 39.27%
  HEMOGLOBIN: 14.53 G/DL
  LEUKOCYTE COUNT: 9.93 x10E3/uL
  LYMPHOCYTE: 91%
  MEAN CORPUSCULAR HEMOGLOBIN: 22.63 pg
  MEAN CORPUSCULAR HEMOGLOBIN CONCENTRATION: 37.07 G/DL
  MEAN CORPUSCULAR VOLUME: 61.07 fL
  MONOCYTE: 1%
  NEUTROPHIL: 7.67%
  NUCLEATED RED BLOOD CELLS: 0.33 /100WBC
  PLATELET COUNT: 951 x10E3/uL
  ALANINE AMINOTRANSFERASE: 74 u/L
  ALBUMIN: 4.1 G/DL
  ALKALINE PHOSPHATASE: 493.67 u/L
  ASPARTATE AMINOTRANSFERASE: 138.33 u/L
  BLOOD UREA NITROGEN: 12.67 mg/dL
  CARBON DIOXIDE: 34.33 mmol/L
  CHLORIDE: 96.5 MEQ/L
  CHOLESTEROL: 46.67 mg/dL
  CREATINE PHOSPHOKINASE: 1177 u/L
  CREATININE: 0.14 mg/dL
  GLUCOSE: 134.33 mg/dL
  LACTATE DEHYDROGENASE: 200 u/L
  LIPASE: 11 u/L
  PHOSPHORUS: 11.53 mg/dL
  POTASSIUM: 6.12 MEQ/L
  SODIUM: 142.35 MEQ/L
  TOTAL BILIRUBIN: 0.33 mg/dL
  TOTAL PROTEIN: 6.33 G/DL
  URIC ACID: 0.5 mg/dL
[3]
  ABSOLUTE BASOPHIL: 0 CELLS/uL
  ABSOLUTE EOSINOPHIL: 31.33 CELLS/uL
  ABSOLUTE LYMPHOCYTE: 9499.67 CELLS/uL
  ABSOLUTE MONOCYTE: 0 CELLS/uL
  ABSOLUTE SEGMENTED NEUTROPHIL: 1135.67 CELLS/uL
  BASOPHIL: 0%
  EOSINOPHIL: 0.33%
  ERYTHROCYTE COUNT: 6.28 x10E6/uL
  HEMATOCRIT: 37.87%
  HEMOGLOBIN: 14.4 G/DL
  LEUKOCYTE COUNT: 10.67 x10E3/uL
  LYMPHOCYTE: 88.67%
  MEAN CORPUSCULAR HEMOGLOBIN: 22.93 pg
  MEAN CORPUSCULAR HEMOGLOBIN CONCENTRATION: 38.03 G/DL
  MEAN CORPUSCULAR VOLUME: 60.33 fL
  MONOCYTE: 0%
  NEUTROPHIL: 11%
  NUCLEATED RED BLOOD CELLS: 0 /100WBC
  PLATELET COUNT: 1393.33 x10E3/uL
  ALANINE AMINOTRANSFERASE: 46 u/L
  ALBUMIN: 3.87 G/DL
  ALKALINE PHOSPHATASE: 445.33 u/L
  ASPARTATE AMINOTRANSFERASE: 64.67 u/L
  BLOOD UREA NITROGEN: 16 mg/dL
  CARBON DIOXIDE: 32.33 mmol/L
  CHLORIDE: 99 MEQ/L
  CHOLESTEROL: 12.33 mg/dL
  CREATINE PHOSPHOKINASE: 238.67 u/L
  CREATININE: 0.14 mg/dL
  GLUCOSE: 131.33 mg/dL
  LACTATE DEHYDROGENASE: 117.33 u/L
  LIPASE: 7.67 u/L
  PHOSPHORUS: 11.13 mg/dL
  POTASSIUM: 5.01 MEQ/L
  SODIUM: 144.1 MEQ/L
  TOTAL BILIRUBIN: 0.1 mg/dL
  TOTAL PROTEIN: 5.8 G/DL
  URIC ACID: 0.3 mg/dL
